Read-outs that look alike come from different tables or passages of the source. Marks after values point to notes of the source that are not given here.

Results on six molecules are retold here after patent publication EP0199170A1, “Composition and method for providing cytoprotection of the gastric mucosa in a mammal receiving aspirin” (priority 1985, dated 1986).

For data set [1], the system named is Aspirin-induced Gastric Mucosal Erosions. Nature of the data set: Aspirin-induced hemorrhagic gastric erosions in fasted rats, lesion number and area by computerized planimetry. Type of data set: in vivo, Sprague-Dawley rats. The note with it: for gastric cytoprotection: coadministered with acidified aspirin 10 mg/100 g, fasted rats; for Aspirin-induced Gastric Mucosal Erosions, percentage of glandular stomach area / Aspirin-induced Gastric Mucosal Erosions, total number of erosions: sacrificed 1 hour after; for Aspirin-induced Gastric Mucosal Erosions, percentage of glandular stomach area: dose 0 group 1.42; for Aspirin-induced Gastric Mucosal Erosions, total number of erosions: dose 0 group 11.90. As to the method: Fasted Sprague-Dwaley female rats were given intragastrically (ig) at least four different doses ranging from 1-30 mg/100 g. body weight of sodium thiosulfate either 30 minutes before or parallel with intragastric administration of 10 mg/100 g body weight of acidified aspirin. Rats were killed one hour after aspirin administration and the number of hemorrhagic gastric erosions (or_ lesions) was determined and the area of erosion was measured by computerized planimetry.
Fasted Sprague-Dawley Female rats were given intragastrically (ig) at least three different doses ranging from 5-30 mg/100 g body weight of 3,3'-thiobis[propanoic acid] either 30 minutes before or parallel with intragastric administration of 10 mg/100 g body weight of acidified aspirin. Rats were killed one hour after aspirin administration and the number of hemorrhagic gastric erosions (or lesions) was determined and the area of erosion was measured by computerized planimetry. 3,3'-Thiobis[propanoic acid]
All of the experiments in this example were performed in female Sprague-Dawley rats having an initial body weight of 150-200 g. […] Before the administration of aspirin, the rats were fasted over night. […] The extent of gastric mucosal injury was evaluated by a Zeiss stereomicroscope coupled with a computerized planimeter which allowed both surface measurement and counting of lesions, according to the published method of Sandor Szabo et al entitled "A Quantitative Method for Assessing the Extent of Experimental Gastric Erosions and Ulcers", J. Pharmacological Methods 13, 59-66, 1985. Light microscopy of formalin-fixed sections was also performed.
Aspirin was suspended in 1% methylcellulose dissolved in 200 mM HCI and was administered at 10 mg/100 g body weight by gavage with rubber tube (Rusch No. 8) and rats were killed one hour later. The study design is presented as follows in Table A.
In the initial experiment, doses of sodium thiosulfate as its pentahydrate were given per os - (p.o.) either 30 minutes or 30 seconds before aspirin. The. 30 second pretreatment is virtually a parallel administration of the compounds.

In a further data set the test system is Aspirin Lesions. Nature of the data set: Gastric cytoprotection against aspirin lesions in adjuvant arthritic rats. The conditions noted are these: for Area of Lesion (mm^2), Mean + S.E. / No. of Lesions, Mean + S.E. / No. of Rats with Lesions: single daily oral administration for 16 days; for effectiveness as cytoprotectant against aspirin-induced gastric lesions in arthritic rats: coadministered with aspirin in the adjuvant-induced arthritis assay. Type of data set: in vivo, Sprague-Dawley rats.

The subject of another data set is male Sprague-Dawley rats. The data set is described as follows: Acute oral toxicity in rats. The note with it: for toxicity: summary statement. From the text: Sodium thiosulfate (anhydrous) was given as a single oral dose to male Sprague-Dawley rats weighing approximately 116-140 g to determine its approximate acute oral LD50. The rats were fasted for four hours before medication, observed for seven days following medication and all surviving rats sacrificed and necropsied at the completion of the study.

Data set [2] relates to Adjuvant Arthritis In Rats. The data set is described as follows: Adjuvant-induced arthritis assay (chronic inflammation, injected hind paw volume). The conditions noted are these: for Injected Hind Paw Volume ml + S.E.: adjuvant control 5.57±0.4, normal control 1.89±0.03; for influence on the antiinflammatory efficacy of aspirin: adjuvant-induced arthritis assay, coadministered with aspirin; for inhibition at 150 mg/kg: Rattus norvegicus, po, 384 h.
Protocol: 300 mg/kg for 16 days coadministered with 150 mg/kg of aspirin in an adjuvant-induced arthritis assay [C.J. Pearson, "Experimental Joint Disease", J. Chron.

The test system of data set [3] is Acute Inflammation In Rats. The data set is described as follows: Carrageenin model of acute inflammation (paw edema). Type of data set: in vivo, Sprague-Dawley rats. The note with it: for inhibition at 100 mg/kg: Rattus norvegicus; for Mean Paw Edema, ml+S.E.: control 1.16±0.1, 9 rats per group. As for the experimental part:
Male Sprague-Dawley rats (initial weight of about 200 g.) received a single oral dose of sodium thiosulfate (anhydrous) at either 30, 100 or 300 mg/kg coadministered with 100 mg/kg of aspirin in the carrageenin model of acute inflammation (paw edema) [C.A. Winter et al, "Carrageenin-lnduced Edema in Hind Paw of the Rat as an Assay for Anti-Inflammatory Drugs, "Proc. Soc. Exptl.

Setting [4] is: parallel administration with aspirin 10 mg/100 g, converted from mg/100 g pentahydrate.
Setting [5] is: Table D: 150 mg/kg each, controls 0.
[6] abbreviates: Table D: 150 mg/kg each, controls 0/10.
The mark [7] stands for this setting: Table E: aspirin 150 mg/kg, Na thiosulfate 300 mg/kg, controls 0.04±0.04.
Where [8] appears, read: Table E: aspirin 150 mg/kg, Na thiosulfate 300 mg/kg, controls 0.1±0.1.
[9] abbreviates: Table E: aspirin 150 mg/kg, Na thiosulfate 300 mg/kg, controls 1/10.
[10] abbreviates: Table G: 150 mg/kg each, single oral daily doses for 16 days.
Where [11] appears, read: Table H: aspirin 150 mg/kg, Na thiosulfate 300 mg/kg, single oral daily doses for 16 days.
[12] abbreviates: Table D: 150 mg/kg each, controls 0, listed as aspirin.

Protocol for Aspirin Lesions: 300 mg/kg for 16 days coadministered with 150 mg/kg of aspirin in an adjuvant-induced arthritis assay [C.J. Pearson, "Experimental Joint Disease", J. Chron. […] At the completion of the assay-the stomachs were excised and examined for the presence or absence of lesions.

As to “anhydrous sodium thiosulfate [Na thiosulfate]”, the “minimum statistically significant effective dose, as anhydrous form” value in data set [1] (coadministered with aspirin 10 mg/100 g, anhydrous equivalent of the pentahydrate dose) is “about 3 mg/100 g”. Besides, in data set [1] (setting [4]), the “minimum statistically significant effective dose (MED)” value is given as “about 32 mg/kg”. Also, the results for the “Area of Lesion (mm^2), Mean + S.E.” value with Aspirin Lesions (setting [5]) and with Aspirin Lesions (setting [7]) were 0.12±0.12 mm^2 and 0 mm^2, respectively. Also, the “No. of Lesions, Mean + S.E.” value with Aspirin Lesions (setting [5]) was determined as 0.4±0.4; in the data set with Aspirin Lesions (setting [8]) it was 0. Besides, the “No. of Rats with Lesions” value in the data set on Aspirin Lesions (setting [6]) is 1/5; with Aspirin Lesions (setting [9]), 0/5. In addition, the “effectiveness as cytoprotectant against aspirin-induced gastric lesions in arthritic rats” value in the data set with Aspirin Lesions was “effective in reducing the number and size of lesions”. For the same molecule, the gastric irritancy result in the data set with male Sprague-Dawley rats (at the very high dose level of 7,000 mg/kg, single oral dose) is recorded as “gastric irritancy was observed”. Further, the “approximate acute oral LD50 (ALDsD)” value in the data set on male Sprague-Dawley rats (single oral dose, male rats fasted four hours, observed 7 days) is 7,000 mg/kg. Besides, the toxicity result in the data set with male Sprague-Dawley rats is on record as “low order of acute toxicity”. Further, in data set [2] (150 or 300 mg/kg alone, single oral daily doses for 16 days), the “effect on the development of arthritis” value is “did not demonstrate an effect on the development of arthritis”. For the same molecule, the “% Inhibition” value in data set [2] (setting [10]) came to 10%; in data set [2] (setting [11]), 2%. Further, in data set [2] (setting [10]), the “Injected Hind Paw Volume ml + S.E.” value came to 5.21 ± 0.5 mL. The “influence on the antiinflammatory efficacy of aspirin” value (“influence” for short) in data set [2] is given as “did not influence the anti-inflammatory efficacy of aspirin”.

Consider `CCCCC1C(=O)N(c2ccccc2)N(c2ccccc2)C1=O` [Phenylbutazone, phenylbutazone], for which the inhibition at 100 mg/kg in data set [3] (single oral dose 100 mg/kg, paw edema vs control, read-out: % Inhibition) was determined as 65%. The “Mean Paw Edema, ml+S.E.” value in data set [3] (single oral dose 100 mg/kg) is 0.41 ± 0.03 mL.

For sodium thiosulfate, the gastric cytoprotection result in data set [1] (intragastric) is “significant (p<0.01) gastric cytoprotection”. Further, the toxicity result in the data set on male Sprague-Dawley rats was “low order of toxicity”. Further, the “influence” value in data set [2] is reported as “did not reduce the antiinflammatory efficacy of aspirin”.

Turning to sodium thiosulfate pentahydrate, in data set [1] (given p.o. 30 minutes before aspirin 10 mg/100 g), the “protection against aspirin-induced gastric erosions” value is recorded as “dose-dependent protection”. Besides, the “minimum statistically significant effective dose (MED)” value in data set [1] (parallel administration with acidified aspirin 10 mg/100 g, intragastric, rats, area and number of lesions, listed as sodium thiosulfate as its pentahydrate) is reported as “about 5 mg/100 g”; in data set [1] (parallel administration with aspirin 10 mg/100 g, converted from mg/100 g), “about 201 µmol/kg”; in data set [1] (setting [4]) it was “about 50 mg/kg”. In addition, the “Aspirin-induced Gastric Mucosal Erosions, percentage of glandular stomach area” value in data set [1] (single oral dose 1.0 mg/100 g body weight, aspirin concomitantly 10 mg/100 g in acidified 1% methylcellulose) is 0.89 percentage of glandular stomach area; in data set [1] (single oral dose 5.0 mg/100 g body weight, aspirin concomitantly 10 mg/100 g, p<0.01) it was 0.18* percentage of glandular stomach area; in data set [1] (single oral dose 10.0 mg/100 g body weight, aspirin concomitantly 10 mg/100 g, p<0.01) it was 0.27* percentage of glandular stomach area; in data set [1] (single oral dose 30.0 mg/100 g body weight, aspirin concomitantly 10 mg/100 g, p<0.01), 0* percentage of glandular stomach area. Further, the “Aspirin-induced Gastric Mucosal Erosions, total number of erosions” value in data set [1] (single oral dose 1.0 mg/100 g body weight, aspirin concomitantly 10 mg/100 g) was 6.67; in data set [1] (single oral dose 5.0 mg/100 g body weight, aspirin concomitantly 10 mg/100 g, p≤0.01), 1.56*; in data set [1] (single oral dose 10.0 mg/100 g body weight, aspirin concomitantly 10 mg/100 g, p≤0.01), 1.78*; in data set [1] (single oral dose 30.0 mg/100 g body weight, aspirin concomitantly 10 mg/100 g, p≤0.01) it was 0*.

`O=C(O)CCSCCC(=O)O` [TBPA, 3,3'-Thiobis[propanoic acid]]: in data set [1] (Rattus norvegicus, po, parallel administration with acidified aspirin 10 mg/100 g, intragastric, rats, area and number of lesions, read-out: minimum statistically significant effective dose (MED)), the minimal effective dose was approximately 300 mg/kg. For the same molecule, in data set [1] (intragastric), the gastric cytoprotection entry is recorded as “significant (p<0.01) gastric cytoprotection”. Further, the “effectiveness as cytoprotectant against aspirin-induced gastric lesions in arthritic rats” value in the data set with Aspirin Lesions was “effectiveness of TBPA as cytoprotectant against ASA-induced gastric lesions was also demonstrated”. Besides, the toxicity result in the data set with male Sprague-Dawley rats is “low order of toxicity”. Moreover, the “influence” value in data set [2] is “did not reduce the antiinflammatory efficacy of ASA”.

In the case of `CC(=O)Oc1ccccc1C(=O)O` [Aspirin, aspirin], the “Area of Lesion (mm^2), Mean + S.E.” value in the data set with Aspirin Lesions (setting [5]) stood at 16.02±3.82 mm^2; in the data set on Aspirin Lesions (setting [12]), 16.02 mm^2; with Aspirin Lesions (setting [7]), 11.61±4.42 mm^2; in the data set on Aspirin Lesions (Table E: aspirin 150 mg/kg, Na thiosulfate 300 mg/kg, controls 0.04±0.04, listed as aspirin), 11.61 mm^2. Further, the “No. of Lesions, Mean + S.E.” value is reported as 15.2±2.9 in the data set with Aspirin Lesions (setting [5]); 15.2 in the data set on Aspirin Lesions (setting [12]); 25.7±4.9 with Aspirin Lesions (setting [8]); 25.7 with Aspirin Lesions (Table E: aspirin 150 mg/kg, Na thiosulfate 300 mg/kg, controls 0.1±0.1, listed as aspirin). Also, the “No. of Rats with Lesions” value with Aspirin Lesions (setting [6]) is given as 10/10; with Aspirin Lesions (setting [9]), 9/9. For the same molecule, in data set [3] (po), the inhibition at 100 mg/kg worked out at 44%. Further, the “Mean Paw Edema, ml+S.E.” value in data set [3] (single oral dose 100 mg/kg) was 0.65 ± 0.1 mL. Further, the figures for the inhibition at 150 mg/kg in data set [2] (setting [10]) and in data set [2] (setting [11]) were 61% and 43%, respectively. Moreover, the “Injected Hind Paw Volume ml + S.E.” value in data set [2] (setting [10]) was found to be 3.31 ± 0.2 mL.
